Experiments:
[1] = tested on: SiHa cells (cervical cancer); assay: MTT antiproliferative assay, SiHa; format: cell-based, human; conditions: Homo sapiens, 72 h, read-out: Growth inhibition (%) ± SEM
Experimental: (§1) The in vitro antiproliferative activities of the synthesized aminodiols 4–38 against a panel of different human cancer cell lines of gynecological origin, including cervical (SiHA and HeLa), breast (MCF7 and MDA-MB-231), and ovary (A2780) cancers were assayed by the MTT method. […] Cisplatin, a clinically applied anticancer agent, was used as a reference compound and the results are summarized in Figure 3 and Table S1 in Supporting Information. […] On the other hand, none of the prepared azole derivatives exerted relevant activity.
(§2) The growth-inhibitory effects of the gibberellic acid-based aminodiol derivatives were determined by a standard MTT (3-(4,5-dimethylthiazol-2-yl)-2,5-diphenyltetrazolium bromide) assay on a panel containing five cell lines, including Hela and Siha (cervical cancers); MDA-MB-231 and MCF-7 (breast cancers); and A2780 ovarian cancer cells. The most promising agents were additionally tested against NIH/3T3 mouse embryo fibroblast cells. All cell lines were purchased from the European Collection of Cell Cultures (Salisbury, UK) except SiHa, which was obtained from the American Tissue Culture Collection (Manassas, VA, USA). The cells were maintained in minimal essential medium supplemented with 10% fetal bovine serum, 1% non-essential amino acids, and 1% penicillin-streptomycin at 37 °C in a humidified atmosphere containing 5% CO2. All media and supplements were obtained from Lonza Group Ltd., (Basel, Switzerland). Cancer cells were seeded into 96-well plates (5000 cells/well), after an overnight incubation the test compound was added in 2 different concentrations (10 µM and 30 µM) and incubated for another 72 h under cell-culturing conditions. Then, 20 μL of 5 mg/mL MTT solution was added to each well and incubated for a further 4 h. The medium was removed, and the precipitated formazan crystals were dissolved in DMSO during 60 min of shaking at 37 °C. As the final step, the absorbance was measured at 545 nm by using a microplate reader (SPECTROStar Nano, BMG Labtech, Offenburg, Germany). Untreated cells were included as controls. […] These agents were additionally tested against NIH/3T3 fibroblasts to obtain results about their cancer selectivity. Two independent experiments were performed with five wells for each condition. Cisplatin (Ebewe GmbH, Unterach, Austria), a clinically used anticancer agent, was used as a positive control. Calculations were performed utilizing the GraphPad Prism 5.01 software (GraphPad Software Inc., San Diego, CA, USA).

[2] = DPPH free radical scavenging assay
Experimental: As a consequence, in vitro antioxidant activities of selected N-aliphatic- and N-aryl-substituted aminodiols were determined by 1,1-diphenyl-2-picrylhydrazyl (DPPH) assay.
The antioxidant effects of the aminodiol derivatives were tested on 1,1-diphenyl-2-picrylhydrazyl (DPPH) radicals according to Brand-Williams (1995) [55] and Sánchez-Moreno (2002) [56], with some modifications. […] After a 30 min incubation period at room temperature (25 °C) the absorbances were measured at 517 nm by a microplate reader (SPECTROStar Nano, BMG Labtech, Offenburg, Germany). Trolox (3,4-Dihydro-6-hydroxy-2,5,7,8-tetramethyl-2H-1-benzopyran-2-carboxylic acid) was used as a positive control. All measurements were performed in duplicate with 5 parallels.

[3] = tested on: MDA-MB-231 cells (breast cancer); assay: MTT antiproliferative assay, MDA-MB-231; format: cell-based, human; conditions: Homo sapiens, 72 h, read-out: Growth inhibition (%) ± SEM; for inhibition at 10 µM: MDA-MB-231, 10 μM; for inhibition at 30 µM: MDA-MB-231, 30 μM
Experimental: as §1, §2

[4] = tested on: HeLa cells (cervical cancer); assay: MTT antiproliferative assay, HeLa; format: cell-based, human; conditions: Homo sapiens, 72 h, read-out: Growth inhibition (%) ± SEM
Experimental: as §1, §2

[5] = tested on: A2780 ovarian cancer cells; assay: MTT antiproliferative assay, A2780; format: cell-based, human; conditions: Homo sapiens, 72 h, read-out: Growth inhibition (%) ± SEM; for inhibition at 10 µM: A2780, 10 μM; for inhibition at 30 µM: A2780, 30 μM
Experimental: as §1, §2

Question: Which results are given for `CCOC(=O)[C@H]1c2c(C)cccc2[C@H]2CC[C@]3(O)C[C@@]21C[C@]3(O)Cn1nnc2ccccc21` [Compound 30, Ethyl (4bS,7S,8S,9aR,10R)-8-((1H-benzo[d][1,2,3]triazol-1-yl)methyl)-7,8-dihydroxy-1-methyl-4b,6,7,8,9,10-hexahydro-5H-7,9a-methanobenzo[a]azulene-10-carboxylate]?
Answer: inhibition at 10 µM [1]: < 20%; inhibition at 30 µM [1]: 29.5 ± 2%; DPPH scavenging activity ([2]; concentration range 3–100 µM): None of the six molecules elicited considerable activity; inhibition at 10 µM [3]: < 20%; inhibition at 30 µM [3]: < 20%; inhibition at 10 µM [4]: < 20%; inhibition at 30 µM [4]: < 20%; inhibition at 10 µM [5]: < 20%; inhibition at 30 µM [5]: 26.8 ± 3.79%

Question: Which results are given for `CCOC(=O)[C@H]1c2c(C)cccc2[C@H]2CC[C@]3(O)C[C@@]21C[C@]3(O)CNCc1cn(Cc2ccccc2)nn1` [Compound 31, Ethyl (4bS,7S,8S,9aR,10R)-8-((((1-benzyl-1H-1,2,3-triazol-4-yl)methyl)amino)methyl)-7,8-dihydroxy-1-methyl-4b,6,7,8,9,10-hexahydro-5H-7,9a-methanobenzo[a]azulene-10-carboxylate]?
Answer: inhibition at 10 µM [1]: < 20%; inhibition at 30 µM [1]: 42.9 ± 0.84%; melting point: 122 to 123 °C; inhibition at 10 µM [3]: < 20%; inhibition at 30 µM [3]: 50.8 ± 3.01%; inhibition at 10 µM [4]: < 20%; inhibition at 30 µM [4]: 40.2 ± 5.59%; inhibition at 10 µM [5]: < 20%; inhibition at 30 µM [5]: 41.4 ± 1.13%

Question: What does the source list for `CCOC(=O)[C@@H]1c2c(C)cccc2C2CC[C@]3(O)C[C@@]21C[C@]3(O)CN[C@@H](C)c1ccc2ccccc2c1` (stereo partly drawn) [Compound 35, Ethyl (7S,8S,9aR,10S)-7,8-dihydroxy-1-methyl-8-((((S)-1-(naphthalen-2-yl)ethyl)amino)methyl)-4b,6,7,8,9,10-hexahydro-5H-7,9a-methanobenzo[a]azulene-10-carboxylate]?
Answer: inhibition at 10 µM [1]: 44.6 ± 0.74%; inhibition at 30 µM [1]: 98.41 ± 0.74%; melting point: 56 to 59 °C; inhibition at 10 µM [3]: 29.4 ± 1.66%; inhibition at 30 µM [3]: 96.81 ± 0.82%; inhibition at 10 µM [4]: 40.1 ± 1.21%; inhibition at 30 µM [4]: 95.9 ± 2.21%; inhibition at 10 µM [5]: 42.7 ± 2.63%; inhibition at 30 µM [5]: 95.4 ± 0.48%

Question: With `CCOC(=O)[C@@H]1c2c(C)cccc2C2CC[C@]3(O)C[C@@]21C[C@]3(O)CNCc1cccc2ccccc12` (stereo partly drawn) [Compound 38, Ethyl (7S,8S,9aR,10S)-7,8-dihydroxy-1-methyl-8-(((naphthalen-1-ylmethyl)amino)methyl)-4b,6,7,8,9,10-hexahydro-5H-7,9a-methanobenzo[a]azulene-10-carboxylate] as the compound, how does the inhibition at 10 µM [1] read?
Answer: 27.9 ± 0.93%

Question: What about the inhibition at 30 µM [1] of the same compound?
Answer: 97.63 ± 0.8%

Question: What about the melting point of the same compound?
Answer: 61 to 65 °C

Question: What about the inhibition at 10 µM [3] of the same compound?
Answer: < 20%

Question: What about the inhibition at 30 µM [3] of the same compound?
Answer: 96.17 ± 0.76%

Question: And the inhibition at 10 µM [4]?
Answer: 26.9 ± 0.53%

Question: What about the inhibition at 30 µM [4] of the same compound?
Answer: 96.5 ± 1.72%

Question: And the inhibition at 10 µM [5]?
Answer: 28.6 ± 2.66%

Question: What about the inhibition at 30 µM [5] of the same compound?
Answer: 95.23 ± 0.66%

Question: For `Cc1c(C)c2c(c(C)c1O)CCC(C)(C(=O)O)O2` (stereo not shown) [Trolox, 3,4-Dihydro-6-hydroxy-2,5,7,8-tetramethyl-2H-1-benzopyran-2-carboxylic acid, reference compound], which IC50 ([2]; 0.1 mM DPPH, 30 min, 25 °C) is on record?
Answer: 20.2 µM
